From BindingDB's records for doi:10.1016/0960-894X(95)00377-6 (1995)

Key:
[1] = target: alpha-L-fucosidase (Bos taurus); experiment: Compound was tested for inhibitory activity (competitive) against alpha-L-fucosidase from bovine kidney
[2] = target: alpha-L-fucosidase (Bos taurus); experiment: Compound was tested for inhibitory activity against alpha-L-fucosidase from bovine epididymis
[3] = target: alpha-L-fucosidase (Bos taurus); experiment: Compound was tested for inhibitory activity (mixed) against alpha-L-fucosidase from bovine kidney

Row | Structure (SMILES) | Ki [1] [µM] | Ki [2] [µM] | Ki [3] [µM]
1 | C[C@@H]1O[C@@H](O)[C@@H](O)[C@H](O)[C@@H]1S [(2R,3S,4S,5S,6S)-5-Mercapto-6-methyl-tetrahydro-pyran-2,3,4-triol] | 42 | 84 | 
2 | NCC(O)C(=O)C(=O)C(N)CO (stereo unspecified) [2,6-Diimino-hexane-1,3,4,5-tetraol] | 7 | 11 | 
3 | CC1OC(SC2CC(O)C(O)OC2CO)C(O)C(O)C1O [(2S,4S,5S)-2-((3S,5S)-5,6-Dihydroxy-2-hydroxymethyl-tetrahydro-pyran-3-ylsulfanyl)-6-methyl-tetrahydro-pyran-3,4,5-triol] |  |  | 4000
4 | CC(=O)NC1CC(SC2OC(C)C(O)C(O)C2O)C(CO)OC1O [N-[(3S,5S)-2-Hydroxy-6-hydroxymethyl-5-((2S,4S,5S)-3,4,5-trihydroxy-6-methyl-tetrahydro-pyran-2-ylsulfanyl)-tetrahydro-pyran-3-yl]-acetamide] |  |  | 2400
